Test results taken from patent US20250152661A1, “NOVEL COMBINATION TREATMENT REGIMEN OF BACTERIAL INFECTIONS” (BONE SUPPORT AB, priority 2022, published 2025).
In brackets after ≈: the same amount, converted by molar mass. Like-named read-outs stand apart in the source and are kept apart here.

What was measured:
[1] = tested on: S. aureus ATCC 25923; assay: MIC values predetermined using MALDI-TOF MS system (Vitek MS); type: cell-based, Staphylococcus aureus
[2] = tested on: S. aureus clinical strain P-3; assay: as above; type: cell-based, Staphylococcus aureus

CO[C@H]1/C=C/O[C@@]2(C)Oc3c(C)c(O)c4c(O)c(c(/C=N/N5CCN(C)CC5)c(O)c4c3C2=O)NC(=O)/C(C)=C\C=C\[C@H](C)[C@H](O)[C@@H](C)[C@@H](O)[C@@H](C)[C@H](OC(C)=O)[C@@H]1C [RIF, rifampicin]
MIC ([1]; Staphylococcus aureus, ATCC25923, S. aureus ATCC 25923, read-out: MIC): 0.008 µg/mL (≈ 0.00972 µM)
MIC ([2]; Staphylococcus aureus, S. aureus clinical strain P-3, read-out: MIC): 0.008 µg/mL (≈ 0.00972 µM)

CN[C@H](CC(C)C)C(=O)N[C@H]1C(=O)N[C@@H](CC(N)=O)C(=O)N[C@H]2C(=O)N[C@H]3C(=O)N[C@H](C(=O)N[C@H](C(=O)O)c4cc(O)cc(O)c4-c4cc3ccc4O)[C@H](O)c3ccc(c(Cl)c3)Oc3cc2cc(c3O[C@@H]2O[C@H](CO)[C@@H](O)[C@H](O)[C@H]2O[C@H]2C[C@](C)(N)[C@H](O)[C@H](C)O2)Oc2ccc(cc2Cl)[C@H]1O [VAN, Vancomycin]
MIC ([1]; Staphylococcus aureus, ATCC25923): 2 µg/mL (≈ 1.38 µM)
MIC ([2]; Staphylococcus aureus): 1 µg/mL (≈ 0.69 µM)

gentamicin
MIC ([1]; S. aureus ATCC 25923): 0.064 µg/mL
MIC ([2]; S. aureus clinical strain P-3): 0.5 µg/mL
